For test [1], the system named is Calf thymus DNA. Nature of the test: Binding affinity to calf thymus DNA assessed as hypochromism by measuring red shift in absorption spectra at 40 uM after 2 mins by UV-vis spectroscopy. Format: nucleic-acid assay. The conditions noted are these: Bos taurus.
The test system of test [2] is Calf thymus DNA. Nature of the test: Binding affinity to calf thymus DNA assessed as binding constant at 40 uM after 2 mins by UV-vis spectroscopy. Particulars: Bos taurus. The format is nucleic-acid assay.
For a further test, the system named is HEK293. Nature of the test: Cytotoxicity against human HEK293 cells assessed as inhibition of cell growth after overnight incubation by MTT assay. Format: cell-based.
The next test deals with MCF7. Briefly: Antiproliferative activity against human MCF7 cells assessed as inhibition of cell growth after overnight incubation by MTT assay. The format is functional, cell-based.
The next test relates to HepG2. Briefly: Antiproliferative activity against human HepG2 cells assessed as inhibition of cell growth after overnight incubation by MTT assay. The format is functional, cell-based. In general terms: Tetrazolium assays rely on reduction of a dye to a coloured formazan, in cell work by metabolically active cells.
Another test has as its system SW 1116. Briefly: Antiproliferative activity against human SW1116 cells assessed as inhibition of cell growth after overnight incubation by MTT assay. Format: functional, cell-based.
Test [3] in a line: Antioxidant activity assessed as DPPH radical scavenging activity measured for 5 mins by UV absorbance analysis. Format: functional. (Loss of DPPH colour is used to gauge radical scavenging.)
Test [4] relates to Calf thymus DNA. Briefly: Binding affinity to calf thymus DNA assessed as binding constant at 68 uM after 2 mins by UV-vis spectroscopy. The format is nucleic-acid assay. The conditions noted are these: Bos taurus.
Test [5] deals with Calf thymus DNA. Nature of the test: Binding affinity to calf thymus DNA assessed as hypochromism by measuring red shift in absorption spectra at 68 uM after 2 mins by UV-vis spectroscopy. The format is nucleic-acid assay. The conditions noted are these: Bos taurus.

Among the data in ChEMBL document CHEMBL4616635, “Investigations of antiproliferative and antioxidant activity of β-lactam morpholino-1,3,5-triazine hybrids” (Bioorg Med Chem, 2020) are Activity, Kb and IC50 values, retold here.

The IC50 is the point on the concentration scale where inhibition reaches its midpoint.

Converted amounts (≈) assume the structure as drawn. A value given as a limit tells only on which side of the number the result lay.

`O=C1[C@@H](Oc2ccc(Cl)cc2)[C@@H](c2ccc([N+](=O)[O-])cc2)N1c1ccc(Nc2nc(N3CCOCC3)nc(N3CCOCC3)n2)cc1` (relative stereo): in the test with Calf thymus DNA [1], the Activity is -5 nm. In addition, the Kb with Calf thymus DNA [2] came to 2.6 ×10⁵ /M. For the same compound, the IC50 with HEK293 is over 100 µM; with MCF7, over 100 µM; in the test with HepG2, over 100 µM; in the test on SW 1116 it was 4.88 µM; in [3], over 10000 µg/mL.

In the case of `O=[N+]([O-])c1ccc(/C=N/c2ccc(Nc3nc(N4CCOCC4)nc(N4CCOCC4)n3)cc2)cc1`, the concentration for half-maximal inhibition (IC50) in the test on HEK293 is over 100 µM; with MCF7, over 100 µM; in the test with HepG2 it was over 100 µM; with SW 1116, 3.32 µM; in test [3], 195 µg/mL (≈ 0.398 mM). The Kb in the test with Calf thymus DNA [4] came out at 1.08 ×10⁵ /M. In addition, the Activity in the test on Calf thymus DNA [5] is -4 nm.
